Measurements as given in paper PMC12755129 (Blood, 2025).

Target: LRRC8A (SWELL1), LRRC8 volume-regulated anion channel complex (Homo sapiens, UniProt Q8IWT6)
Assay: patch clamp of hypotonic swell-activated VRAC/ATP currents in MEG-01 cells
Type: cell-based

LRRC8A (SWELL1), LRRC8 volume-regulated anion channel complex, sequence (Q8IWT6 whole entry): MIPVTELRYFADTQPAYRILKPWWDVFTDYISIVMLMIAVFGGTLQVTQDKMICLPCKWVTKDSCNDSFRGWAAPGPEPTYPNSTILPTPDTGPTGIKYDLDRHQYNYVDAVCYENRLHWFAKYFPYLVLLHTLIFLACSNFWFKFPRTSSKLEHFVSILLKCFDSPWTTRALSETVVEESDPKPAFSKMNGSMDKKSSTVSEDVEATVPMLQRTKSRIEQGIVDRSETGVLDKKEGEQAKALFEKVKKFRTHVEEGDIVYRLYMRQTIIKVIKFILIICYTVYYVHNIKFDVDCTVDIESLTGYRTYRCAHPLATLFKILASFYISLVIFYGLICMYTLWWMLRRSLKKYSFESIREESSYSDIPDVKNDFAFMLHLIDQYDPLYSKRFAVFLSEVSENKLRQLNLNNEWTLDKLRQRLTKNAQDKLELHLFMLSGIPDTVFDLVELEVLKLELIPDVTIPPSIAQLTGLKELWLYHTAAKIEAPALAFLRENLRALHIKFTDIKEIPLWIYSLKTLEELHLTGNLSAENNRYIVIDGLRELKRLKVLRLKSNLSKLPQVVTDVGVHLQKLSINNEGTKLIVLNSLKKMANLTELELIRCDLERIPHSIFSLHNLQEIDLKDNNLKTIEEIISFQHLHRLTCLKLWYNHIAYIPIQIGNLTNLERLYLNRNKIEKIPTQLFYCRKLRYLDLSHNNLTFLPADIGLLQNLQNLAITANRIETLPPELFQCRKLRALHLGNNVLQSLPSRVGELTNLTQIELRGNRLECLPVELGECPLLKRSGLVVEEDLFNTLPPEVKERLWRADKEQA
LRRC8A (SWELL1), LRRC8 volume-regulated anion channel complex, sequence (Q6P9F7 whole entry partner): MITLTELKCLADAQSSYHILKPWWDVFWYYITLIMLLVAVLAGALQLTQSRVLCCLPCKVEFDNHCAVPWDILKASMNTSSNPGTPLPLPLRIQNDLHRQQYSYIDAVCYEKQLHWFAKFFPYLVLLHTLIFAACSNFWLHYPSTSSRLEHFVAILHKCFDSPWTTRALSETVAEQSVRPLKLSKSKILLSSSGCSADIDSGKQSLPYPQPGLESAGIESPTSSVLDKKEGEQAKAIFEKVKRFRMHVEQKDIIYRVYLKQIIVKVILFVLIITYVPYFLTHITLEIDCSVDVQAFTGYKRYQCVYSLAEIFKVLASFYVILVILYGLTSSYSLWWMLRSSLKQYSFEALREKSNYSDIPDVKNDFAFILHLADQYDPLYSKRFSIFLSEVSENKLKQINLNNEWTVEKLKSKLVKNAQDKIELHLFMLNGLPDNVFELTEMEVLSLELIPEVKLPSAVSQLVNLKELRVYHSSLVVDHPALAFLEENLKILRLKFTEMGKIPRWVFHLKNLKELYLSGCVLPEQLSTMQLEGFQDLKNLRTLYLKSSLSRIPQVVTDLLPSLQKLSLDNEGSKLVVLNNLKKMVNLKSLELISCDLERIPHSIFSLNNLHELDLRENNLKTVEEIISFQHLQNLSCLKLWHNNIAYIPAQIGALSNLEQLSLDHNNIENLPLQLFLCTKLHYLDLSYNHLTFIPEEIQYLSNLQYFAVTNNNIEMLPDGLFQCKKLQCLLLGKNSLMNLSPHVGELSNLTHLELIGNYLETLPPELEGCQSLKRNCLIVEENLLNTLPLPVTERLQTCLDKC
LRRC8A (SWELL1), LRRC8 volume-regulated anion channel complex, sequence (Q8TDW0 whole entry partner): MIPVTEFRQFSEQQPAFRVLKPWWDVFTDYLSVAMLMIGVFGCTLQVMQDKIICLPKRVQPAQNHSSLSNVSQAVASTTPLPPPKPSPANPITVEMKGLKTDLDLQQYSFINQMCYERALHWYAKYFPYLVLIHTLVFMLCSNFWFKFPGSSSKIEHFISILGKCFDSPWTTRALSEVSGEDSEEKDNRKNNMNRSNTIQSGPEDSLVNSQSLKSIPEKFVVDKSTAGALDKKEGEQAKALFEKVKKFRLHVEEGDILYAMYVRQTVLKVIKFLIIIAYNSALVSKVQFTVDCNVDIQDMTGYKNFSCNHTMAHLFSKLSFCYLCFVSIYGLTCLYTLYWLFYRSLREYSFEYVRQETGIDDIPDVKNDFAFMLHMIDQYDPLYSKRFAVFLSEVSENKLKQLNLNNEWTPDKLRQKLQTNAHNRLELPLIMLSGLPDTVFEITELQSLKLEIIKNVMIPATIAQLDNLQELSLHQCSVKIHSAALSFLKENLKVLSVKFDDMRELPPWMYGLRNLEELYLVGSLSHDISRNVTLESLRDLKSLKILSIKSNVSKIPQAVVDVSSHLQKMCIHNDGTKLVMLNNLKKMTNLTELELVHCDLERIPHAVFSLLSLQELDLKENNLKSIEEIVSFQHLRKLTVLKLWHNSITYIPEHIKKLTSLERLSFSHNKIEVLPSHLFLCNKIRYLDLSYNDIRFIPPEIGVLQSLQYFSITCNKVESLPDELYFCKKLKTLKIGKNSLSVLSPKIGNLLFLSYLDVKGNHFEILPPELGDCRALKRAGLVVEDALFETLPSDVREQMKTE
LRRC8A (SWELL1), LRRC8 volume-regulated anion channel complex, sequence (Q7L1W4 whole entry partner): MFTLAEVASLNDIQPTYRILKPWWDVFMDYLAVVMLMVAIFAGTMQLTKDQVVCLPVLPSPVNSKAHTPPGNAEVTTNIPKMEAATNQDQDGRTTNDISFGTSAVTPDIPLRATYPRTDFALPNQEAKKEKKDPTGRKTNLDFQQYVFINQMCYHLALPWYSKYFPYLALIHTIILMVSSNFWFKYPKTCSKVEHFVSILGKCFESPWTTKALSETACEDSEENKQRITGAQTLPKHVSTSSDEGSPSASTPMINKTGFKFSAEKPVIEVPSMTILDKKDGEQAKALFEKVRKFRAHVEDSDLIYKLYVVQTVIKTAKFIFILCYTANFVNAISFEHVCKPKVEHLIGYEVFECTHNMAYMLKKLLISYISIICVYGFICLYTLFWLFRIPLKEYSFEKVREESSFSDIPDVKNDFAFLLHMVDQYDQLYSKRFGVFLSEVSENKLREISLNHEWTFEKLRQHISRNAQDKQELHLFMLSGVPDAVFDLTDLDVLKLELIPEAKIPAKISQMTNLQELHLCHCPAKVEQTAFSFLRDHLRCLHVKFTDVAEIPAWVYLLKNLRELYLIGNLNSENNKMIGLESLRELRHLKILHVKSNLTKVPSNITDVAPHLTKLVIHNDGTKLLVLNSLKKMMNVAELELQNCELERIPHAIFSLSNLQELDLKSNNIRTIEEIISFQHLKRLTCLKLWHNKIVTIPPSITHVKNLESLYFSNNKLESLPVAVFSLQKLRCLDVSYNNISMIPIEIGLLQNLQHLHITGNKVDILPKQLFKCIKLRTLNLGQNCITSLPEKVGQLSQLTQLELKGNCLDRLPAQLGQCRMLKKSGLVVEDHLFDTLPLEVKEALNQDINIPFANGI

| Molecule | IC50 |
| --- | --- |
| CCCCC1(C2CCCC2)Cc2cc(OCCCC(=O)O)c(Cl)c(Cl)c2C1=O (centres unmarked) [SN-401, 4-(2-butyl-6,7-dichloro-2-cyclopentylindan-1-on-5-yl)oxybutyric acid] | 1500 nM |
| SN-406 | 1000 nM |
